Experimental data: US11718604B2, “4-amino-6-(1,3-benzodioxole)picolinates and their use as herbicides” (Dow AgroSciences LLC, priority 2018, dated 2023)

What was measured:
Format in all cases: in vivo
[1] = system: EPHHL: wild poinsettia (Euphorbia heterophylla); assay: Post-emergent herbicidal test, wild poinsettia; details: post-emergence, 336 h, 14 days after application, read-out: Visual Growth Reduction (%) 14 Days After Application EPHHL
Description: (§1) Post-Emergent Test: Seeds or nutlets of the desired test plant species were planted in Sun Gro Metro-Mix® 360 planting mixture, which typically has a pH of 6.0 to 6.8 and an organic matter content of about 30 percent, in plastic pots with a surface area of 64 square centimeters (cm^2). When required to ensure good germination and healthy plants, a fungicide treatment and/or other chemical or physical treatment was applied. The plants were grown for 7-21 d in a greenhouse with an approximate 15 h photoperiod which was maintained at about 23-29° C. during the day and 22-28° C. during the night. Nutrients and water were added on a regular basis and supplemental lighting was provided with overhead metal halide 1000-Watt lamps as necessary. The plants were employed for testing when they reached the first or second true leaf stage.
(§2) A weighed amount, determined by the highest rate to be tested, of each test compound was placed in a 25 mL glass vial and was dissolved in 4 mL of a 97:3 v/v mixture of acetone and DMSO to obtain concentrated stock solutions. […] The concentrated stock solutions obtained were diluted with 20 mL of an aqueous mixture containing acetone, water, isopropyl alcohol, DMSO, Atplus 411F crop oil concentrate, and Triton® X-155 surfactant in a 48.5:39:10:1.5:1.0:0.02 v/v ratio to obtain spray solutions containing the highest application rates. Additional application rates were obtained by serial dilution of 12 mL of the high rate solution into a solution containing 2 mL of a 97:3 v/v mixture of acetone and DMSO and 10 mL of an aqueous mixture containing acetone, water, isopropyl alcohol, DMSO, Atplus 411F crop oil concentrate, and Triton X-155 surfactant in a 48.5:39:10:1.5:1.0:0.02 v/v ratio to obtain ½×, ¼×, ⅛× and 1/16× rates of the high rate. Compound requirements are based upon a 12 mL application volume at a rate of 187 liters per hectare (L/ha). Formulated compounds were applied to the plant material with an overhead Mandel track sprayer equipped with 8002E nozzles calibrated to deliver 187 L/ha over an application area of 0.503 square meters at a spray height of 18 inches (43 cm) above the average plant canopy height. Control plants were sprayed in the same manner with the solvent blank.
(§3) The treated plants and control plants were placed in a greenhouse as described above and watered by subirrigation to prevent wash-off of the test compounds. After 14 d, the condition of the test plants as compared with that of the untreated plants was determined visually and scored on a scale of 0 to 100 percent where 0 corresponds to no injury and 100 corresponds to complete kill.

[2] = system: SORVU: shattercane (Sorghum bicolor); assay: Post-emergent herbicidal test, shattercane; details: post-emergence, 336 h, 14 days after application, read-out: Visual Growth Reduction (%) 14 Days After Application SORVU
Description: as §1, §2, §3

[3] = system: SETFA: giant foxtail (Setaria faberi); assay: Post-emergent herbicidal test, giant foxtail; details: post-emergence, 336 h, 14 days after application, read-out: Visual Growth Reduction (%) 14 Days After Application SETFA
Description: as §1, §2, §3

[4] = system: ECHCG: barnyardgrass (Echinochloa crus-galli); assay: Post-emergent herbicidal test, barnyardgrass; details: post-emergence, 336 h, 14 days after application, read-out: Visual Growth Reduction (%) 14 Days After Application ECHCG
Description: as §1, §2, §3

[5] = system: DIGSA: large crabgrass (Digitaria sanguinalis); assay: Post-emergent herbicidal test, large crabgrass; details: post-emergence, 336 h, 14 days after application, read-out: Visual Growth Reduction (%) 14 Days After Application DIGSA
Description: as §1, §2, §3

[6] = system: IPOHE: ivyleaf morningglory (Ipomoea hederacea); assay: Post-emergent herbicidal test, ivyleaf morningglory; details: post-emergence, 336 h, 14 days after application, read-out: Visual Growth Reduction (%) 14 Days After Application IPOHE
Description: as §1, §2, §3

[7] = system: ABUTH: velvetleaf (Abutilon theophrasti); assay: Post-emergent herbicidal test, velvetleaf; details: post-emergence, 336 h, 14 days after application, read-out: Visual Growth Reduction (%) 14 Days After Application ABUTH
Description: as §1, §2, §3

[8] = system: VIOTR: wild violet (Viola tricolor); assay: Post-emergent herbicidal test, wild violet; details: post-emergence, 336 h, 14 days after application, read-out: Visual Growth Reduction (%) 14 Days After Application VIOTR
Description: as §1, §2, §3

[9] = system: BRSNN: oilseed rape, canola (Brassica napus); assay: Post-emergent herbicidal test, oilseed rape; details: post-emergence, 336 h, 14 days after application, read-out: Visual Growth Reduction (%) 14 Days After Application BRSNN
Description: as §1, §2, §3

[10] = system: CYPES: yellow nutsedge (Cyperus esculentus); assay: Post-emergent herbicidal test, yellow nutsedge; details: post-emergence, 336 h, 14 days after application, read-out: Visual Growth Reduction (%) 14 Days After Application CYPES
Description: as §1, §2, §3

[11] = system: CIRAR: Canada thistle (Cirsium arvense); assay: Post-emergent herbicidal test, Canada thistle; details: post-emergence, 336 h, 14 days after application, read-out: Visual Growth Reduction (%) 14 Days After Application CIRAR
Description: as §1, §2, §3

C#CCOC(=O)c1nc(-c2ccc(Cl)c3c2OCO3)c(F)c(N)c1Cl [Compound 1C]
pest or weed control at 17.5 g/ha ([1]; 17.5 g ai/ha): 10%
pest or weed control at 35 g/ha ([1]; 35 g ai/ha): 10%
pest or weed control at 70 g/ha ([1]; 70 g ai/ha): 10%
pest or weed control at 140 g/ha ([1]; 140 g ai/ha): 25%
pest or weed control at 17.5 g/ha ([2]; 17.5 g ai/ha): 10%
pest or weed control at 35 g/ha ([2]; 35 g ai/ha): 50%
pest or weed control at 70 g/ha ([2]; 70 g ai/ha): 70%
pest or weed control at 140 g/ha ([2]; 140 g ai/ha): 70%
pest or weed control at 17.5 g/ha ([3]; 17.5 g ai/ha): 0%
pest or weed control at 35 g/ha ([3]; 35 g ai/ha): 0%
pest or weed control at 70 g/ha ([3]; 70 g ai/ha): 50%
pest or weed control at 140 g/ha ([3]; 140 g ai/ha): 60%
pest or weed control at 17.5 g/ha ([4]; 17.5 g ai/ha): 0%
pest or weed control at 35 g/ha ([4]; 35 g ai/ha): 0%
pest or weed control at 70 g/ha ([4]; 70 g ai/ha): 0%
pest or weed control at 140 g/ha ([4]; 140 g ai/ha): 0%
pest or weed control at 17.5 g/ha ([5]; 17.5 g ai/ha): 0%
pest or weed control at 35 g/ha ([5]; 35 g ai/ha): 0%
pest or weed control at 70 g/ha ([5]; 70 g ai/ha): 0%
pest or weed control at 140 g/ha ([5]; 140 g ai/ha): 60%
pest or weed control at 17.5 g/ha ([6]; 17.5 g ai/ha): 0%
pest or weed control at 35 g/ha ([6]; 35 g ai/ha): 0%
pest or weed control at 70 g/ha ([6]; 70 g ai/ha): 0%
pest or weed control at 140 g/ha ([6]; 140 g ai/ha): 10%
pest or weed control at 17.5 g/ha ([7]; 17.5 g ai/ha): 100%
pest or weed control at 35 g/ha ([7]; 35 g ai/ha): 100%
pest or weed control at 70 g/ha ([7]; 70 g ai/ha): 100%
pest or weed control at 140 g/ha ([7]; 140 g ai/ha): 100%
pest or weed control at 17.5 g/ha ([8]; 17.5 g ai/ha): 65%
pest or weed control at 35 g/ha ([8]; 35 g ai/ha): 65%
pest or weed control at 70 g/ha ([8]; 70 g ai/ha): 60%
pest or weed control at 140 g/ha ([8]; 140 g ai/ha): 65%
pest or weed control at 17.5 g/ha ([9]; 17.5 g ai/ha): 95%
pest or weed control at 35 g/ha ([9]; 35 g ai/ha): 97%
pest or weed control at 70 g/ha ([9]; 70 g ai/ha): 100%
pest or weed control at 140 g/ha ([9]; 140 g ai/ha): 100%
pest or weed control at 17.5 g/ha ([10]; 17.5 g ai/ha): 30%
pest or weed control at 35 g/ha ([10]; 35 g ai/ha): 80%
pest or weed control at 70 g/ha ([10]; 70 g ai/ha): 85%
pest or weed control at 140 g/ha ([10]; 140 g ai/ha): 80%
pest or weed control at 17.5 g/ha ([11]; 17.5 g ai/ha): 70%
pest or weed control at 35 g/ha ([11]; 35 g ai/ha): 85%
pest or weed control at 70 g/ha ([11]; 70 g ai/ha): 90%
pest or weed control at 140 g/ha ([11]; 140 g ai/ha): 90%
